Experimental data published in article PMC6321168, “Comparative Study on Excretive Characterization of Main Components in Herb Pair Notoginseng-Safflower and Single Herbs by LC–MS/MS” (Pharmaceutics, 2018).

Experiment: Fecal excretion study in rats after oral NS, SF or CNS (LC–MS/MS)
Assay type: in vivo
Settings: rat feces
Description: The animal room was set at constant temperature of 20 ± 2 °C with humidity of 50 ± 20% and 12/12 h light/dark cycle.
Eighteen male rats were fasted for 12 h before starting the experiment. The rats were divided into three groups at random (n = 6) and received NS (60 mg/kg), SF (50 mg/kg), and NS (60 mg/kg) + SF (50 mg/kg), respectively, by oral gavage. The rats were placed in separate metabolic cages. The urine samples were collected at 0–2, 2–4, 4–6, 6–8, 8–12, 12–24, 24–36, 36–48, 48–72, 72–96, and 96–120 h. The feces samples were collected at 0–4, 4–8, 8–12, 12–24, 24–36, 36–48, 48–72, 72–96, and 96–120 h. The urine volume was recorded and the dry feces were measured for each collection period. Samples were stored at −80 °C until analysis.
Feces samples were homogenized in ultrapure water (1 g/15 mL), soaked for 30 min, ultrasonically extracted for 30 min and centrifuged at 9000 rpm for 8 min. An aliquot of 200 μL feces water extraction solution was mixed with 10 μL of IS and then extracted three times with water-saturated n-BuOH (150 μL). The upper organic phase was combined and evaporated to dryness using a ZLS-2 vacuum centrifugal concentrator. The residue was treated as the urine sample and a 1-μL aliquot was injected for LC–MS analysis.
Ultra fast liquid chromatography (UFLC) analysis was performed using a Shimadzu UFLC system (DGU-20A3R Degasser; LC-20AD pump; SIL-20AXR Autosampler; CTO-20AC Column Oven) (Nakagyo-Ku, Koyoto, Japan). […] Because of the different endogenous substances in the urine and feces samples, different elution gradients were used to alleviate the matrix effects for the analytes.
The mass spectrometric detection was performed on an ABSciex 4500 Qtrap mass spectrometer (ABSciex, Foster City, CA, USA) equipped with a negative electrospray ionization (ESI) interface using multiple reaction monitoring (MRM). The MS parameters were optimized under the selected ion monitoring conditions as follows: curtain gas, 35 psi; ionspray voltage, 4500 V; turbo gas temperature, 450 °C; GS1, 45 psi; GS2, 45 psi. All data were acquired and analyzed by Analyst software (Versions 1.6.2) from ABSciex.
The accumulative excretion percentage was calculated for each analyte as follows. Excretion at time (t) = [concentration of the analyte (ng/mL) at t] × total urine (or feces) volume (mL) at t. The cumulative excretion up to time t (mg) was expressed as a percent (%) cumulative excretion by dividing by the total amount of the analyte ingested (mg): % Cumulative Excretion = 100 × (Σt excretiont) total ingested.

concentration at 4 h (male, Sprague Dawley, oral CNS 110 mg/kg, 4 h): 0.555 ± 0.763 µg/mL
concentration at 8 h (male, Sprague Dawley, oral CNS 110 mg/kg, 8 h): 1.08 ± 0.431 µg/mL
concentration at 12 h (male, Sprague Dawley, oral CNS 110 mg/kg, 12 h): 0.899 ± 0.096 µg/mL
concentration at 24 h (male, Sprague Dawley, oral CNS 110 mg/kg, 24 h): 0.802 ± 0.025 µg/mL
concentration at 36 h (male, Sprague Dawley, oral CNS 110 mg/kg, 36 h): 0.548 ± 0.036 µg/mL
concentration at 48 h (male, Sprague Dawley, oral CNS 110 mg/kg, 48 h): 0.552 ± 0.03 µg/mL
concentration at 72 h (male, Sprague Dawley, oral CNS 110 mg/kg, 72 h): 0.455 ± 0.377 µg/mL
concentration at 96 h (male, Sprague Dawley, oral CNS 110 mg/kg, 96 h): 0.021 ± 0.02 µg/mL
concentration at 4 h (male, Sprague Dawley, oral NS 60 mg/kg, 4 h): 1.08 ± 0.156 µg/mL
concentration at 8 h (male, Sprague Dawley, oral NS 60 mg/kg, 8 h): 0.767 ± 0.029 µg/mL
concentration at 12 h (male, Sprague Dawley, oral NS 60 mg/kg, 12 h): 2.06 ± 0.137 µg/mL
concentration at 24 h (male, Sprague Dawley, oral NS 60 mg/kg, 24 h): 2.18 ± 0.09 µg/mL
concentration at 36 h (male, Sprague Dawley, oral NS 60 mg/kg, 36 h): 0.92 ± 0.048 µg/mL
concentration at 48 h (male, Sprague Dawley, oral NS 60 mg/kg, 48 h): 1.02 ± 0.052 µg/mL
concentration at 72 h (male, Sprague Dawley, oral NS 60 mg/kg, 72 h): 0.12 ± 0.009 µg/mL
concentration at 96 h (male, Sprague Dawley, oral NS 60 mg/kg, 96 h): 0.019 ± 0.004 µg/mL
concentration at 120 h (male, Sprague Dawley, oral NS 60 mg/kg, 120 h): 0.017 ± 0.003 µg/mL
Accumulative excretion amount (oral CNS 110 mg/kg, 4 h): 7.072 ± 10.199 µg
Accumulative excretion percentage (oral CNS 110 mg/kg, 4 h): 0.192±0.275%
Excretion amount (oral CNS 110 mg/kg, 4 h): 7.072 ± 10.199 µg
Accumulative excretion amount (oral CNS 110 mg/kg, 8 h): 22.570 ± 15.790 µg
Accumulative excretion percentage (oral CNS 110 mg/kg, 8 h): 0.607±0.426%
Excretion amount (oral CNS 110 mg/kg, 8 h): 15.499 ± 6.228 µg
Accumulative excretion amount (oral CNS 110 mg/kg, 12 h): 36.062 ± 14.935 µg
Accumulative excretion percentage (oral CNS 110 mg/kg, 12 h): 0.968±0.409%
Excretion amount (oral CNS 110 mg/kg, 12 h): 13.492 ± 4.335 µg
Accumulative excretion amount (oral CNS 110 mg/kg, 24 h): 48.081 ± 16.475 µg
Accumulative excretion percentage (oral CNS 110 mg/kg, 24 h): 1.282±0.443%
Excretion amount (oral CNS 110 mg/kg, 24 h): 12.018 ± 3.497 µg
Accumulative excretion amount (oral CNS 110 mg/kg, 36 h): 56.222 ± 17.772 µg
Accumulative excretion percentage (oral CNS 110 mg/kg, 36 h): 1.501±0.476%
Excretion amount (oral CNS 110 mg/kg, 36 h): 8.141 ± 2.259 µg
Accumulative excretion amount (oral CNS 110 mg/kg, 48 h): 64.538 ± 19.434 µg
Accumulative excretion percentage (oral CNS 110 mg/kg, 48 h): 1.723±0.522%
Excretion amount (oral CNS 110 mg/kg, 48 h): 8.316 ± 2.614 µg
Accumulative excretion amount (oral CNS 110 mg/kg, 72 h): 71.863 ± 19.005 µg
Accumulative excretion percentage (oral CNS 110 mg/kg, 72 h): 1.923±0.515%
Excretion amount (oral CNS 110 mg/kg, 72 h): 7.325 ± 6.432 µg
Accumulative excretion amount (oral CNS 110 mg/kg, 96 h): 72.213 ± 19.048 µg
Accumulative excretion percentage (oral CNS 110 mg/kg, 96 h): 1.931±0.512%
Excretion amount (oral CNS 110 mg/kg, 96 h): 0.350 ± 0.350 µg
Accumulative excretion amount (oral CNS 110 mg/kg, 120 h): 72.213 ± 19.048 µg
Accumulative excretion percentage (oral CNS 110 mg/kg, 120 h): 1.931±0.513%
Accumulative excretion amount (oral NS 60 mg/kg, 4 h): 15.357 ± 4.697 µg
Accumulative excretion percentage (oral NS 60 mg/kg, 4 h): 0.361±0.113%
Excretion amount (oral NS 60 mg/kg, 4 h): 15.357 ± 4.697 µg
Accumulative excretion amount (oral NS 60 mg/kg, 8 h): 26.423 ± 8.057 µg
Accumulative excretion percentage (oral NS 60 mg/kg, 8 h): 0.624±0.192%
Excretion amount (oral NS 60 mg/kg, 8 h): 11.066 ± 3.551 µg
Accumulative excretion amount (oral NS 60 mg/kg, 12 h): 56.148 ± 17.467 µg
Accumulative excretion percentage (oral NS 60 mg/kg, 12 h): 1.312±0.411%
Excretion amount (oral NS 60 mg/kg, 12 h): 29.724 ± 9.595 µg
Accumulative excretion amount (oral NS 60 mg/kg, 24 h): 87.371 ± 26.505 µg
Accumulative excretion percentage (oral NS 60 mg/kg, 24 h): 2.043±0.622%
Excretion amount (oral NS 60 mg/kg, 24 h): 31.223 ± 9.132 µg
Accumulative excretion amount (oral NS 60 mg/kg, 36 h): 100.721 ± 31.049 µg
Accumulative excretion percentage (oral NS 60 mg/kg, 36 h): 2.354±0.725%
Excretion amount (oral NS 60 mg/kg, 36 h): 13.350 ± 4.715 µg
Accumulative excretion amount (oral NS 60 mg/kg, 48 h): 115.527 ± 36.105 µg
Excretion amount (oral NS 60 mg/kg, 48 h): 14.806 ± 5.076 µg
Accumulative excretion amount (oral NS 60 mg/kg, 72 h): 117.237 ± 36.600 µg
Accumulative excretion percentage (oral NS 60 mg/kg, 72 h): 2.731±0.854%
Excretion amount (oral NS 60 mg/kg, 72 h): 1.710 ± 0.525 µg
Accumulative excretion amount (oral NS 60 mg/kg, 96 h): 117.502 ± 36.686 µg
Accumulative excretion percentage (oral NS 60 mg/kg, 96 h): 2.741±0.854%
Excretion amount (oral NS 60 mg/kg, 96 h): 0.264 ± 0.103 µg
Accumulative excretion amount (oral NS 60 mg/kg, 120 h): 117.753 ± 36.774 µg
Accumulative excretion percentage (oral NS 60 mg/kg, 120 h): 2.745±0.858%
Excretion amount (oral NS 60 mg/kg, 120 h): 0.252 ± 0.100 µg
SMILES: CC(C)=CCC[C@](C)(O[C@@H]1O[C@H](CO[C@@H]2O[C@H](CO)[C@@H](O)[C@H](O)[C@H]2O)[C@@H](O)[C@H](O)[C@H]1O)[C@H]1CC[C@]2(C)[C@@H]1[C@H](O)C[C@@H]1[C@@]3(C)CC[C@H](O[C@@H]4O[C@H](CO)[C@@H](O)[C@H](O)[C@H]4O[C@@H]4O[C@H](CO)[C@@H](O)[C@H](O)[C@H]4O)C(C)(C)[C@@H]3CC[C@]12C [ginsenoside Rb1]
